Results: ChEMBL document CHEMBL5143512, “Synthesis and in vitro antitrypanosomal evaluation of novel 6-heteroarylidene-substituted quinolone derivatives” (Eur J Med Chem, 2022)

Key:
[1] = system: Trypanosoma brucei brucei; test: Antitrypanosomal activity against Trypanosoma brucei brucei 427 trypomastigotes assessed as reduction in parasite growth incubated for 48 hrs by resazurin dye based fluorescence assay; type: functional, organism-based; settings: Trypanosoma brucei, 427, 48 h
[2] = Cytotoxicity against African green monkey Vero cells assessed as cell viability at 5 uM incubated for 48 hrs by MTT based colorimetric assay; type: toxicity; settings: chlorocebus sabaeus, read-out: Activity
[3] = Cytotoxicity against African green monkey Vero cells assessed as reduction in cell viability incubated for 48 hrs by MTT based colorimetric assay; type: toxicity; settings: chlorocebus sabaeus
[4] = Selectivity index, ratio of CC50 for African green monkey Vero cells to IC50 for Antitrypanosomal activity against Trypanosoma brucei brucei 427 trypomastigotes; type: toxicity; settings: read-out: Ratio CC50/IC50
[5] = Cytotoxicity against human hTERT-BJ cells assessed as cell viability at 1 uM incubated for 48 hrs by MTT based colorimetric assay; type: toxicity; settings: read-out: Activity
[6] = Cytotoxicity against human hTERT-BJ cells assessed as cell viability at 5 uM incubated for 48 hrs by MTT based colorimetric assay; type: toxicity; settings: read-out: Activity
[7] = Cytotoxicity against human hTERT-BJ cells assessed as cell viability at 10 uM incubated for 48 hrs by MTT based colorimetric assay; type: toxicity; settings: read-out: Activity
hTERT-BJ = test: Cytotoxicity against human hTERT-BJ cells assessed as reduction in cell viability at 10 uM incubated for 48 hrs by MTT based colorimetric assay; type: toxicity
[8] = Cytotoxicity against African green monkey Vero cells assessed as cell viability at 10 uM incubated for 48 hrs by MTT based colorimetric assay; type: toxicity; settings: chlorocebus sabaeus, read-out: Activity
[9] = Cytotoxicity against African green monkey Vero cells assessed as cell viability at 1 uM incubated for 48 hrs by MTT based colorimetric assay; type: toxicity; settings: chlorocebus sabaeus, read-out: Activity

| Compound | IC50 [1] [nM] | other results |
| --- | --- | --- |
| O=C1/C(=C/c2ccc([N+](=O)[O-])o2)COc2ccccc21 | 510 | – |
| CCOC(=O)c1cn(CC)c2ccc(C(=O)/C=C/c3ccc([N+](=O)[O-])o3)cc2c1=O | 600 | – |
| CCOC(=O)c1cn(CC)c2ccc(C(=O)/C=C/c3ccc(Br)o3)cc2c1=O | 1310 | – |
| CCOC(=O)c1cn(CCO)c2ccc(C(=O)/C=C/c3ccc([N+](=O)[O-])o3)cc2c1=O | 2090 | – |
| CCOC(=O)c1cn(CC)c2ccc(C(=O)/C=C/c3ccc([N+](=O)[O-])s3)cc2c1=O | 970 | – |
| COCCNC(=O)c1cn(Cc2ccc(C)cc2)c2ccc(C(=O)/C=C/c3ccc([N+](=O)[O-])o3)cc2c1=O | 120 | – |
| Cc1ccc(Cn2cc(C(=O)NCCOCCO)c(=O)c3cc(C(=O)/C=C/c4ccc([N+](=O)[O-])o4)ccc32)cc1 | 80 | viability at 48 h, 5 µM [2]: 20%; CC50 at 48 h [3]: 3400 nM; selectivity ratio [4]: 42.5; viability at 48 h, 1 µM [5]: 118%; viability at 48 h, 5 µM [6]: 88%; viability at 48 h, 10 µM [7]: 66%; Activity (hTERT-BJ): < 25%; viability at 48 h, 10 µM [8]: 6%; viability at 48 h, 1 µM [9]: 105% |
| COCCNC(=O)c1cn(Cc2ccccc2)c2ccc(C(=O)/C=C/c3ccc([N+](=O)[O-])o3)cc2c1=O | 470 | – |
| O=C(/C=C/c1ccc([N+](=O)[O-])o1)c1ccc2c(c1)c(=O)c(C(=O)NCCOCCO)cn2Cc1ccccc1 | 280 | – |
| CC(=O)c1ccc2c(c1)c(=O)c(C(=O)NCCOCCO)cn2Cc1ccc(Br)cc1 | 7140 | – |
| N=C(N)c1ccc(OCCCCCOc2ccc(C(=N)N)cc2)cc1 [PENTAMIDINE] | 10 | – |

More lines, main results first:

| IC50 [1] [nM] | Compound | other results |
| --- | --- | --- |
| 3430 | COCCNC(=O)c1c[nH]c2ccc(C(=O)/C=C/c3ccc([N+](=O)[O-])o3)cc2c1=O | – |
| 15300 | CCOC(=O)c1cn(CC(N)=O)c2ccc(C(=O)/C=C/c3ccc([N+](=O)[O-])o3)cc2c1=O | – |
| 360 | O=C1/C(=C/c2ccc([N+](=O)[O-])o2)CCc2ccccc21 | – |
| 2410 | Cc1cccc(Cn2cc(C(=O)NCCN3CCNCC3)c(=O)c3cc(C(=O)/C=C/c4ccc([N+](=O)[O-])o4)ccc32)c1 | – |
| 380 | CCOC(=O)c1cn(CCO)c2ccc(C(=O)/C=C/c3ccc([N+](=O)[O-])s3)cc2c1=O | – |
| 500 | CCOC(=O)c1cn(Cc2ccccc2)c2ccc(C(=O)/C=C/c3ccc([N+](=O)[O-])o3)cc2c1=O | – |
